“Also recorded” adds a separate entry of the source.
Experiments:
[1] = cited from earlier work
mice [2] = assay: CPP test, recurrence of psychological dependence on cocaine after withdrawal; format: in vivo, mouse; conditions: capsazepine 10 mg/kg single-dose pretreatment + cocaine on fifteenth day after 5 days of saline; p<0.05 vs cocaine group
Method: The following CPP system was used to perform the test. The CPP system included two boxes, each having a dimension of 15 cm×15 cm×15 cm (width×depth×height). One of the boxes was made of white acryl sheets on three sides thereof, while the other was made of black acryl sheets on three sides thereof. […] Between the two boxes, a gray-colored pathway having a dimension of 3×3×7.5 cm was provided. Also, a Guillotine door capable of interrupting the pathway was provided. […] The test was performed under an illuminance maintained at 20 Lux.
Test animals were divided into four groups. Psychological saline was administered to the first test group (10 mice), and cocaine was administered to the remaining second test group, third test group and fourth test group (30 mice in total). On the ninth day of the test, development of a dependence on cocaine was checked, and then saline was administered alone for the subsequent 5 days to allow the mice to lose the cocaine dependence. […] Residence times in the CPP boxes were measured as described above.

mice [3] = assay: Locomotor activity, behavioral sensitization caused by cocaine (displacement from spontaneous movements); format: in vivo, mouse
Method: Behavioral sensitization in recurrence of psychological dependence on cocaine was determined according to the locomoter activity. See [Yoo et al. 2003, Neurosci Lett. 433, pp 37-40].
Test animals were divided into four groups as follows: physiological saline was administered to the first test group, cocaine was administered to the second test group, cocaine +2.5 mg/kg of capsazepine (pretreatment) was administered to the third test group, and cocaine +5.0 mg/kg of capsazepine (pretreatment) was administered to the fourth test group.
A locomotor box was used for the test. […] The bottom of the box was covered with a black sheet having substantially the same size as the former.
Step (1)—Basic Test: On the first day, mice were allowed to move freely in the locomotor box for 30 minutes so that they were accommodated.
After the accommodation period, 15 mg/kg of cocaine was administered to the mice via intraperitoneal injection, and then the mice were allowed to remain in the locomotor box. The displacement from spontaneous movements of the mice was measured. […] On the sixth day of the test, the drug was administered again to the mice and the displacement from spontaneous movements was measured. […] Then, displacement from spontaneous movements was measured. […]

male ICR mouse = assay: Conditioned place preference (CPP) test, development of psychological dependence on cocaine; format: in vivo; conditions: measured on ninth day
Method: In the present invention, a conditioned place preference (CPP) test is used to monitor the degree of alleviation in drug dependence and addiction. The CPP system used in the present invention includes a white box, a black box and a pathway connecting the two boxes with each other. Mice are used as test animals and effects on preference/aversion are analyzed by measuring residence times of the mice in the two boxes.
Development of psychological dependence on cocaine was determined according to the CPP (conditioned place preference) test. […]
Step 1 (Basic Test): On the first day of the test, the Guillotine door between the two boxes was opened, and a male ICR mouse having a body weight of 20˜25 g made available by MJ Ltd. (Seoul) was accommodated in the CPP system so that it could move freely therein for 5 minutes. […] Then, residence times of the mouse in the two boxes were measured for 15 minutes to obtain reference values. […]
Step 3 (Test Step): On the ninth day of the test, the Guillotine door between the two boxes was opened, a pathway was provided in the middle of the boxes, and then a mouse, to which no drug was administered, was allowed to remain in the two boxes for 15 minutes. Then, residence times in the white box and in the black box were measured and compared to the values measured on the second day of the test. […]

| SMILES | Analgesic actions in an animal test ([1]; Kwak et al., 1998, Santos and Calixto, 1997) | Analgesic or anti-inflammatory effect ([1]; Perkins and Campbell, 1992) | Inhibition of recurrence of psychological dependence on cocaine (residence times in CPP boxes) (mice [2]) | Inhibition of behavioral sensitization after drug withdrawal (displacement from spontaneous movements, 60 minutes) (mice [3]; capsazepine 5 mg/kg pretreated group, cocaine 15 mg/kg on twelfth day after withdrawal period of five days, p<0.01) | Inhibition of behavioral sensitization (displacement from spontaneous movements, 60 minutes) (mice [3]; capsazepine 5 mg/kg pretreatment + cocaine 15 mg/kg i.p. repeated, sixth day of the test, p<0.001) | Inhibition of development of psychological dependence on cocaine (residence times in CPP boxes) (male ICR mouse; capsazepine 2.5 and 5 mg/kg i.p., 30 minutes before cocaine 15 mg/kg i.p., p<0.05 vs cocaine group) | Effect on development of psychological dependence on cocaine (residence times in CPP boxes) (male ICR mouse; capsaicin 0.3 mg/kg pretreatment + cocaine, p<0.01 vs saline group) |
| --- | --- | --- | --- | --- | --- | --- | --- |
| Oc1cc2c(cc1O)CN(C(=S)NCCc1ccc(Cl)cc1)CCC2 [capsazepine] | effective for providing analgesic actions | does not provide an analgesic or anti-inflammatory effect | significantly inhibits recurrence of dependence on cocaine; also recorded: showed inhibition of such recurrence | completely inhibited | significantly inhibits behavioral sensitization caused by cocaine; also recorded: behavioral sensitization was inhibited | significantly inhibits development of psychological dependence on cocaine | – |
| COc1cc(CNC(=O)CCCC/C=C/C(C)C)ccc1O [capsaicin] | – | – | – | – | – | – | increases dependence on cocaine; also recorded: significant increase in psychological dependence on cocaine |

Source: patent US20090088417A1, “VANILLOID RECEPTOR ANTAGONIST FOR PREVENTION AND TREATMENT OF DRUG DEPENDENCE AND ADDICTION” (priority 2006, published 2009)
